The supplement of paper PMC8612539
Values after ≈ are worked out from the molar mass of the structure shown.

What was measured:
Enterococcus spp. = test: minimum inhibitory concentration (MIC)
Procedure: (§1)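 Broth microdilution MIC (Sensititre BOPO7F bovine plate, CLSI methods) of 19 antimicrobials against field isolates of P. multocida, M. haemolytica, H. somni (deep nasopharyngeal swabs) and E. coli, Enterococcus spp. (rectal swabs) from weaned dairy heifers. Incubation 16-24 h at 35 C. MIC is the lowest concentration preventing visible growth. Values with <= or > lie at the tested range limits. Trimethoprim-sulfamethoxazole is given as the trimethoprim component of a 1:19 mixture.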

Pasteurella multocida = test: minimum inhibitory concentration (MIC)
Procedure: as §1

CC[C@H]1OC(=O)C[C@@H](O)[C@H](C)[C@@H](O[C@@H]2O[C@H](C)[C@@H](O[C@H]3C[C@@](C)(O)[C@@H](O)[C@H](C)O3)[C@H](N(C)C)[C@H]2O)[C@@H](CC=O)C[C@@H](C)C(=O)/C=C/C(C)=C/[C@@H]1CO[C@@H]1O[C@H](C)[C@@H](O)[C@@H](OC)[C@H]1OC [Tylosin]
minimum inhibitory concentration [µg/mL]
Details | Enterococcus spp. | Pasteurella multocida
isolate (source animal id): 2 | 2 (≈ 2.18 µM) | –
isolate (source animal id): 10 | – | > 32
isolate (source animal id): 11 | – | > 32
isolate (source animal id): 12 | – | > 32
isolate (source animal id): 19 | – | > 32
isolate (source animal id): 23 | – | > 32
isolate (source animal id): 26 | – | > 32
isolate (source animal id): 35 | > 32 | –
isolate (source animal id): 42 | 2 (≈ 2.18 µM) | –
isolate (source animal id): 44 | 2 (≈ 2.18 µM) | –
isolate (source animal id): 79 | 2 (≈ 2.18 µM) | –
isolate (source animal id): 88 | 2 (≈ 2.18 µM) | –
isolate (source animal id): 91 | 2 (≈ 2.18 µM) | –
isolate (source animal id): 92 | 2 (≈ 2.18 µM) | –
isolate (source animal id): 98 | – | > 32
isolate (source animal id): 104 | – | > 32
isolate (source animal id): 111 | 2 (≈ 2.18 µM) | –
isolate (source animal id): 115 | – | > 32
isolate (source animal id): 117 | – | > 32
isolate (source animal id): 118 | – | > 32
isolate (source animal id): 121 | – | > 32
isolate (source animal id): 122 | > 32 | –
isolate (source animal id): 123 | 2 (≈ 2.18 µM) | –
isolate (source animal id): 124 | – | > 32
isolate (source animal id): 125 | – | > 32
isolate (source animal id): 128 | – | > 32
isolate (source animal id): 131 | – | > 32
isolate (source animal id): 133 | 2 (≈ 2.18 µM) | –
isolate (source animal id): 135 | – | > 32
isolate (source animal id): 136 | – | > 32
isolate (source animal id): 140 | – | > 32
isolate (source animal id): 144 | – | > 32
isolate (source animal id): 146 | – | > 32
isolate (source animal id): 150 | – | > 32
isolate (source animal id): 151 | – | > 32
isolate (source animal id): 153 | – | > 32
isolate (source animal id): 155 | – | > 32
isolate (source animal id): 157 | – | > 32
isolate (source animal id): 158 | > 32 | –
isolate (source animal id): 160 | – | > 32
isolate (source animal id): 164 | – | > 32
isolate (source animal id): 165 | – | > 32
isolate (source animal id): 167 | – | > 32
isolate (source animal id): 168 | 2 (≈ 2.18 µM) | > 32
isolate (source animal id): 169 | 2 (≈ 2.18 µM) | > 32
isolate (source animal id): 170 | – | > 32
isolate (source animal id): 171 | 2 (≈ 2.18 µM) | > 32
isolate (source animal id): 172 | – | > 32
isolate (source animal id): 173 | – | > 32
isolate (source animal id): 174 | – | > 32
isolate (source animal id): 175 | > 32 | > 32
isolate (source animal id): 176 | – | > 32
isolate (source animal id): 177 | 4 (≈ 4.37 µM) | > 32
isolate (source animal id): 178 | – | > 32
isolate (source animal id): 179 | – | 32 (≈ 34.9 µM)
isolate (source animal id): 181 | 2 (≈ 2.18 µM) | –
isolate (source animal id): 182 | 2 (≈ 2.18 µM) | > 32
isolate (source animal id): 183 | 2 (≈ 2.18 µM) | –
isolate (source animal id): 187 | 2 (≈ 2.18 µM) | –
isolate (source animal id): 190 | 2 (≈ 2.18 µM) | –
isolate (source animal id): 192 | – | > 32
isolate (source animal id): 193 | – | 32 (≈ 34.9 µM)
isolate (source animal id): 194 | 2 (≈ 2.18 µM) | –
isolate (source animal id): 195 | 2 (≈ 2.18 µM) | 32 (≈ 34.9 µM)
isolate (source animal id): 196 | – | > 32
isolate (source animal id): 197 | 2 (≈ 2.18 µM) | > 32
isolate (source animal id): 198 | – | > 32
isolate (source animal id): 199 | – | > 32
isolate (source animal id): 200 | – | > 32
isolate (source animal id): 201 | – | > 32
isolate (source animal id): 203 | – | 32 (≈ 34.9 µM)
isolate (source animal id): 204 | – | > 32
isolate (source animal id): 205 | – | > 32
isolate (source animal id): 206 | – | > 32
isolate (source animal id): 207 | – | 32 (≈ 34.9 µM)
isolate (source animal id): 208 | – | 32 (≈ 34.9 µM)
isolate (source animal id): 209 | – | 32 (≈ 34.9 µM)
isolate (source animal id): 210 | – | > 32
isolate (source animal id): 211 | 2 (≈ 2.18 µM) | –
isolate (source animal id): 213 | – | 32 (≈ 34.9 µM)
isolate (source animal id): 214 | 2 (≈ 2.18 µM) | –
isolate (source animal id): 216 | – | > 32
isolate (source animal id): 222 | 4 (≈ 4.37 µM) | –
isolate (source animal id): 223 | 2 (≈ 2.18 µM) | > 32
isolate (source animal id): 227 | – | 32 (≈ 34.9 µM)
isolate (source animal id): 228 | > 32 | –
isolate (source animal id): 229 | – | > 32
isolate (source animal id): 230 | > 32 | –
isolate (source animal id): 233 | – | > 32
isolate (source animal id): 234 | – | > 32
isolate (source animal id): 235 | > 32 | –
isolate (source animal id): 236 | 8 (≈ 8.73 µM) | –
isolate (source animal id): 237 | – | > 32
isolate (source animal id): 239 | 2 (≈ 2.18 µM) | –
isolate (source animal id): 241 | > 32 | > 32
isolate (source animal id): 244 | 2 (≈ 2.18 µM) | –
isolate (source animal id): 245 | – | > 32
isolate (source animal id): 246 | 2 (≈ 2.18 µM) | –
isolate (source animal id): 247 | > 32 | > 32
isolate (source animal id): 250 | 2 (≈ 2.18 µM) | > 32
isolate (source animal id): 252 | > 32 | –
isolate (source animal id): 254 | – | > 32
isolate (source animal id): 255 | – | > 32
isolate (source animal id): 258 | – | 32 (≈ 34.9 µM)
isolate (source animal id): 261 | – | > 32
isolate (source animal id): 262 | – | > 32
isolate (source animal id): 268 | > 32 | –
isolate (source animal id): 269 | – | > 32
isolate (source animal id): 270 | – | > 32
isolate (source animal id): 274 | – | > 32
isolate (source animal id): 275 | – | > 32
isolate (source animal id): 276 | – | > 32
isolate (source animal id): 277 | – | > 32
isolate (source animal id): 278 | – | > 32
isolate (source animal id): 279 | – | > 32
isolate (source animal id): 280 | – | > 32
isolate (source animal id): 282 | 2 (≈ 2.18 µM) | –
isolate (source animal id): 284 | – | > 32
isolate (source animal id): 285 | > 32 | > 32
isolate (source animal id): 287 | – | > 32
isolate (source animal id): 289 | 2 (≈ 2.18 µM) | –
isolate (source animal id): 290 | 4 (≈ 4.37 µM) | > 32
isolate (source animal id): 294 | – | > 32
isolate (source animal id): 295 | – | > 32
isolate (source animal id): 296 | 2 (≈ 2.18 µM) | > 32
isolate (source animal id): 298 | ≤ 0.5 | –
isolate (source animal id): 301 | 2 (≈ 2.18 µM) | –
isolate (source animal id): 307 | – | > 32
isolate (source animal id): 310 | > 32 | > 32
isolate (source animal id): 311 | – | > 32
isolate (source animal id): 312 | – | > 32
isolate (source animal id): 313 | – | > 32
isolate (source animal id): 315 | – | > 32
isolate (source animal id): 316 | – | > 32
isolate (source animal id): 320 | 2 (≈ 2.18 µM) | –
isolate (source animal id): 331 | 4 (≈ 4.37 µM) | –
isolate (source animal id): 333 | 2 (≈ 2.18 µM) | –
isolate (source animal id): 341 | > 32 | –
